Laboratory results from patent EP0278452A2, “2,4- and 2,5-Pyridine-dicarboxylic-acid derivatives, process for their preparation, their use and medicines based on these compounds” (HOECHST AKTIENGESELLSCHAFT, priority 1987, dated 1988).

Tested on: Prolin- und Lysinhydroxylase
Assay: CCl4-induced liver injury (fibrosis) in rats: collagen markers after treatment with the compound
Type: in vivo, Ratten
Settings: rats given CCl4, then compound, Dosierung 2 x 25 mg
Excerpt: Die Aktivität der Fibrogenase kann durch radioimmunologische Bestimmung des N-terminalen Propeptids des Kollagens Typ III oder der N- bzw. C-terminalen Quervernetzungsdomäne des Kollagens Typ IV (7s-Kollagen bzw. Typ-IV-Kollagen-NC₁) im Serum bestimmt werden.
Zu diesem Zweck wurden die Hydroxyprolin-, Prokollagen-III-Peptid-, 7s-Kollagen- und Typ-IV-Kollagen-NC₁-Konzentrationen in der Leber von • a) unbehandelten Ratten (Kontrolle) • b) Ratten, denen Tetrachlorkohlenstoff verabreicht wurde (CCl₄-Kontrolle) • c) Ratten, denen zunächst CCl₄ und anschließend eine erfindungsgemäße Verbindung verabreicht wurde gemessen (diese Testmethode wird beschrieben von Rouiller, C., experimental toxic injury of the liver; in The Liver, C. Rouiller, Vol. 2, S. 335-476, New York, Academic Press, 1964).
Die pharmakologische Wirksamkeit der erfindungsgemäßen Substanzen wurde in einer Versuchsreihe (s. Tabelle 1) untersucht. Dabei zeigte sich eine deutliche Hemmung der Prolin- und Lysinhydroxylase.

SMILES: COC(=O)C(C)(C)COC(=O)c1ccc(C(=O)OCC(C)(C)C(=O)OC)nc1 [compound 4, Pyridin-2,5-dicarbonsäure-bis(2-methoxycarbonyl-2,2-dimethylethyl)ester]
- Hydroxy-prolin (CCl4-Kontrolle 0.773, Kontrolle 0.289): 0.482 µg/mg Leber
- Prokollagen-III-Peptid (CCl4-Kontrolle 73.9, Kontrolle 11.1): 37.2 ng/mL
- Typ-IV-Kollagen-NC1 (CCl4-Kontrolle 168.4, Kontrolle 23.5): 100.8 ng/mL
- 7s-Kollagen (CCl4-Kontrolle 308.7, Kontrolle 22.8): 121.4 ng/mL
